Read-outs that look alike come from different tables or passages of the source.
Assays:
[1] = system: ReNcell wt (non-transduced proliferating ReNcells); assay: cells; assay type: cell-based; conditions: Homo sapiens; 96 h GCV exposure; read-out: EC50 of GCV, killing of non-transduced proliferating ReNcells
Procedure: Cells were exposed to 100 µM of the respective nucleoside for 48 h. DNA damage was monitored using γ-H2A.X marker in yellow and nuclei were counterstained with Hoechst. The white box in the first column indicates the area of the zoom for the hESC colonies.
Plates were washed twice with DMEM-F12 (Gibco, ThermoFisher; Geneva, Switzerland), then coated with Matrigel (Corning, Lonay, Switzerland) 1/100 in DMEM-F12 and incubate 2 h at 37°. Cells were detached using Accutase and seeded at 2000 cells/well in serum-free culture medium containing 10 µM of ROCK inhibitor. At 24 h, the cell culture was continued without ROCK inhibitor. […] Drugs were prepared by serial dilution (two-fold) in 100% DMSO. At 48 h after seeding, cells were exposed to antiviral drugs for 96 h. For EC50 assays, the medium was changed daily for 4 days, then cell viability was assessed using an ATP-based assay. EC50 values for each construct were calculated using a four parameters equation (GraphPad, Prism8, San Diego, CA, USA). The same procedure was used for the cell death kinetic determinations except the treatment duration. Luminescence was measured using Spectra L384/L96 (0.2 sec exposure, Molecular devices, Biberach an der Riß, Germany).

[2] = system: ReNcells Ki67-SR39h (proliferating); assay: ATP-based assay, EC50 and kinetics of cell death in proliferating neural progenitors; parameters: species or system human; conditions: for EC50: Homo sapiens, 96 h GCV exposure
Procedure: We then compared the ability of GCV to kill proliferating NPC that expressed the SR39h thymidine kinase under the control of the ubiquitin (ReNcells Ubi-SR39h) or the Ki67 promoter. (ReNcells Ki67-SR39h) (Figure 4). For this purpose, we first performed a dose response to GCV on undifferentiated NPC. […] We then explored the kinetic of cell death with the suicide enzyme driven either by Ki67 or ubiquitin promoter for different concentrations of GCV. The rapidity of cell death induction but not its final extent was a function of the GCV concentrations. […] This was true for a short-term treatment at 24 h and 48 h, but not at the later time points at 72 h and 96 h (Figure 4D).
Figure 4 EC50 and kinetics of GCV-induced cell death in proliferating and post-mitotic ReNcells. SR39h was expressed in ReNcells (immortalized neural precursor cells that can be differentiated to post-mitotic neurons) under the control of the two different promoters: Ki67 or ubiquitin. Wild type ReNcells were used as control. […] (B–D) Kinetics of cell death of SR39-expressing ReNcells cells either under the control of cycle promoter Ki67 or ubiquitin promoter with increasing GCV concentrations of 1, 10, and 100 µM. Cell viability was measured every 24 h using a bioluminescent ATP-based assay (n = 3). (E) ReNcells were differentiated toward post-mitotic neurons for 21 days then treated with GCV for 10 days. Cell viability was measured using an ATP-based assay. Results are mean + SD of three independent experiments performed in triplicates. (F) Immunostaining, Hoechst in blue and Beta III tubulin (βIII tub) in green, ReNcells were differentiated toward neurons for 21 days, then treated with 10 µM of GCV during 10 days. TEXT PRINTED IN THE PICTURE: (A) GCV: ReNcell wt: 1.2 x 10^-5; ReNcell Ki67-SR39h: 2.1 x 10^-9; ReNcell Ki67-SR39h: 2.1 x 10^-9 DOUBTS OF THE COPYIST ABOUT THIS PICTURE: Panel A table: the picture prints no measure or unit for the three values. The only printed substance label is the axis title 'GCV in M', and the table rows are cell lines, so they are written as targets of the values.
Cell culture plate (96 wells plate Corning #3907, Corning, Lonay, Switzerland) were pre-coated with 60 μL per well of Poly-L-ornithine solution (Sigma, Merk, Eysins, Switzerland) at 37 °C for 30 min. […] For EC50 assays, the medium was changed daily for 4 days, then cell viability was assessed using an ATP-based assay. EC50 values for each construct were calculated using a four parameters equation (GraphPad, Prism8, San Diego, CA, USA). […] Luminescence was measured using Spectra L384/L96 (0.2 sec exposure, Molecular devices, Biberach an der Riß, Germany).

[3] = assay type: in vivo, NOD/SCID mice; conditions: 40 mg/kg/day i.p.; weighed daily during treatment
Procedure: Given the encouraging in vitro results, we next investigated whether this newly developed safety switch system (SR39h and different nucleoside analogs) could prevent tumor formation in vivo. For this purpose, 20,000 undifferentiated Ki67-SR39h-expressing hESC were transplanted into the striatum of NOD/SCID mice. […] A group of control mice received only a NaCl solution. […] Human cytoplasmic marker (HCM) staining confirmed the human (i.e., hESC-derived) origin of these tumors. Tumors cells were predominantly Ki67 positive with a rosette organization as frequently found in tumors of the central nervous system.
Supplementary Figure S3: Mice weight
Mice were weighed daily during guanosine analogs treatment to identify differences in weight gain/loss between treated groups. No differences were observed between treatment groups.
Supplementary Figure S4: in vivo validation of suicide gene. Coronal section of NOD/SCID mice 47 days after injection of hESC expressing the SR39h thymidine kinase variant. Mice were treated for 2x5 days with the respective nucleoside analogs (see Methods). Upper lane: ACV; middle lane: PCV; lower lane: GCV. Sections were colored with cresyl violet and dark purple staining reflects a high density of nuclei. Scale bar 1000 µm. […]

With Nc1nc(O)c2ncn(COC(CO)CO)c2n1 [GCV, ganciclovir] the EC50 [1] was 12000 nM, the “Cell death induction kinetics, Ki67-SR39h compared to Ubi-SR39h” value ([2]; 1 μM and 10 μM GCV, measured every 24 h) was “no significant differences” and the “Cell death induction kinetics, Ki67-SR39h compared to Ubi-SR39h” value ([2]; 100 μM GCV, at 24 h and 48 h, not at 72 h and 96 h) was “slightly slower dynamic of cell death”. For the same molecule, the EC50 ([2]; 24-point dose response, n = 3, read-out: EC50 of GCV, ReNcell Ki67-SR39h) was 2.1 nM, the EC50 ([2]; undifferentiated NPC, read-out: EC50 of GCV) was roughly 2.1 nM and the “Differences in weight among groups” value [3] was “no significant differences in weight”.

Source: paper PMC8834506, “Optimization of Thymidine Kinase-Based Safety Switch for Neural Cell Therapy” (Cells, 2022)
